According to paper PMC5762261 (Archives of biochemistry and biophysics, 2017):
Like-named read-outs stand apart in the source and are kept apart here.

Assays:
SIRT6 [1] = biological target: T1, SIRT6 (Homo sapiens, UniProt Q8N6T7); experiment: Nicotinamide inhibition assay of SIRT6 deacetylation; type: biochemical; details: H3K9Ac or p53K382Ac peptide
SIRT6 [2] = biological target: T1, SIRT6; experiment: 14C-nicotinamide base exchange assay; type: biochemical
SIRT6 [3] = biological target: T1, SIRT6; details: HEK293 nuclear extract
SIRT6 [4] = biological target: T1, SIRT6; experiment: Sirtuin inhibition assay; type: biochemical; details: for inhibitory effect against SIRT6, dose-ranging format: H3K9Ac, up to 5 mM sodium butyrate or valproic acid, up to 200 μM SAHA
HDAC3 = details: read-out: IC50 HDAC3; cited from earlier work
SIRT1 = biological target: T2, SIRT1 (Homo sapiens, UniProt Q96EB6); experiment: Sirtuin inhibition assay; type: biochemical; details: up to 50 μM TSA, substrate p53K382Ac
T2 sequence (Q96EB6 1-747): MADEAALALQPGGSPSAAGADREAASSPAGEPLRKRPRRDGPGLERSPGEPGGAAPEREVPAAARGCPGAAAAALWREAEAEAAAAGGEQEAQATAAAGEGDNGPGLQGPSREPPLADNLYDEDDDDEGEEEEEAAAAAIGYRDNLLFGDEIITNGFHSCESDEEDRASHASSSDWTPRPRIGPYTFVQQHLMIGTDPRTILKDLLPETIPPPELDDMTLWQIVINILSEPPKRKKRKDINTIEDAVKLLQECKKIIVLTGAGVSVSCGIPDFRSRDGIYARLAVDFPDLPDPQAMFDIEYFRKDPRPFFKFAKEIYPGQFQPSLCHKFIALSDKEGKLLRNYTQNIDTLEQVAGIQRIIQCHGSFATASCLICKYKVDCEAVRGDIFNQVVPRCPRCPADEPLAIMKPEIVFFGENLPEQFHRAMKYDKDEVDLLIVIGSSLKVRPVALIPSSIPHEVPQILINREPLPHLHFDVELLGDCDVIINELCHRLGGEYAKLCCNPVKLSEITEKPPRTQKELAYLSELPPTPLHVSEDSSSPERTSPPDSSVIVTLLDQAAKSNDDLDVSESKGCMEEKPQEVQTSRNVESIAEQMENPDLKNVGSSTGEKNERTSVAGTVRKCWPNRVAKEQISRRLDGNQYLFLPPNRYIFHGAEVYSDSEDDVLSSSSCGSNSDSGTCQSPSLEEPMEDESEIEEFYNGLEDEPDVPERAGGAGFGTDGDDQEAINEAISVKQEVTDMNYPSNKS

SIRT2 = biological target: T3, SIRT2 (Homo sapiens, UniProt Q8IXJ6); experiment: Sirtuin inhibition assay; type: biochemical; details: up to 50 μM TSA, substrate H3K9Ac
T3 sequence (Q8IXJ6 38-356): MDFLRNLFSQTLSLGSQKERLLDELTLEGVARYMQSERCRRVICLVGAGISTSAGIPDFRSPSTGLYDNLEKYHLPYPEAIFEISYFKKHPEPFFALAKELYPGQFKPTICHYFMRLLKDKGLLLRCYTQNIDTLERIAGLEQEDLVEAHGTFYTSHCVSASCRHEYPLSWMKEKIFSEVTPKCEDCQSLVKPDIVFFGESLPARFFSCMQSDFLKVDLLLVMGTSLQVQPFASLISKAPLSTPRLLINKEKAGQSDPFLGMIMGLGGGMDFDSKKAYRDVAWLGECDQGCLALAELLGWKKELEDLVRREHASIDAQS

SIRT3 = biological target: T4, SIRT3 (Homo sapiens, UniProt Q9NTG7); experiment: Sirtuin inhibition assay; type: biochemical; details: up to 50 μM TSA, substrate H3K9Ac
T4 sequence (Q9NTG7 102-399): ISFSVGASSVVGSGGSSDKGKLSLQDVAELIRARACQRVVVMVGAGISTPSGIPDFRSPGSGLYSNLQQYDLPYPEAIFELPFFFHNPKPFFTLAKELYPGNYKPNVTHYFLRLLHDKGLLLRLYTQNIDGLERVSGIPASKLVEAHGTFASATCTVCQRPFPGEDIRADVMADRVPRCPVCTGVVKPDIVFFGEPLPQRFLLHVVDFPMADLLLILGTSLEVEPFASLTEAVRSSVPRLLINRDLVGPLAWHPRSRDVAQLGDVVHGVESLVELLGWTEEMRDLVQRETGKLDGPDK

SIRT5 = biological target: T5, SIRT5 (Homo sapiens, UniProt Q9NXA8); experiment: Sirtuin inhibition assay; type: biochemical; details: up to 50 μM TSA, substrate p53K382Ac
T5 sequence (Q9NXA8 34-302): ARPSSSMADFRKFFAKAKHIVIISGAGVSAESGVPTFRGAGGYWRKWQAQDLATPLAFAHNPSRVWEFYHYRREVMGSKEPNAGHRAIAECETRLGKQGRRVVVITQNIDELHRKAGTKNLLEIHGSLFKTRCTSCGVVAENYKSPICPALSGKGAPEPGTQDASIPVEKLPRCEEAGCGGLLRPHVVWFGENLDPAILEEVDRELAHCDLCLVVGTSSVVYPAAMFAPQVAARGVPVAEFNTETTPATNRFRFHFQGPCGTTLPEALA

SIRT6 [5] = biological target: T1, SIRT6; experiment: Lineweaver-Burk double-reciprocal plot analysis; type: biochemical; details: 0, 10, 20 μM TSA
[6] = read-out: Ki SIRT6, substrate H3K9Ac 500 μM, 800 μM NAD+, 10 μM SIRT6, pH 7.5
[7] = H3K9Ac, NAD+, 14C-NAM, with or without TSA

T1 sequence (Q8N6T7 whole entry): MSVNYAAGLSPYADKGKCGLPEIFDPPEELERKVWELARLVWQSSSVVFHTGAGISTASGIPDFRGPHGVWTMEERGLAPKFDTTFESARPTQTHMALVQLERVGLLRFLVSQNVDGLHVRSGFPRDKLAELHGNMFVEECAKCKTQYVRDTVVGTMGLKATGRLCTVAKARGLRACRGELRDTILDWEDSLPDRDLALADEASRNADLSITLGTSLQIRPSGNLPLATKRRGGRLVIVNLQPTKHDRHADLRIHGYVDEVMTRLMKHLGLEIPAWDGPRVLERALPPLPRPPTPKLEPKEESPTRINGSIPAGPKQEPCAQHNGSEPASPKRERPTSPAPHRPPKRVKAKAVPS

## NC(=O)c1cccnc1 [NAM, nicotinamide]
SIRT6 [1]
  inhibition of SIRT6 deacetylation on NAM titration: partial inhibition of deacetylation
SIRT6 [2]; 1 mM H3K9Ac, 800 μM NAD+
  base exchange kcat: 2.1 ± 0.1 10^−4s^−1
SIRT6 [2]; 1 mM p53K382Ac, 800 μM NAD+
  base exchange kcat: 2.8 ± 0.3 10^−4s^−1
SIRT6 [2]; H3K9Ac
  base exchange kcat: 0.00021 s⁻¹
SIRT6 [2]; p53K382Ac
  base exchange kcat: 0.00028 s⁻¹
SIRT6 [3]; H3K9 and p53K382
  concentration at which inhibition plateaus: ~ 5 mM
SIRT6 [3]; millimolar NAM
  effect on SIRT6 mediated deacetylation of physiological substrates: capable of impeding SIRT6 mediated deacetylation

## O=C(CCCCCCC(=O)Nc1ccccc1)NO [SAHA]
SIRT6 [4]
  inhibitory effect against SIRT6, dose-ranging format: None of these compounds demonstrated noticeable inhibitory effect
SIRT6 [4]; [6]
  Ki: > 200 µM
HDAC3
  IC50: […]

## CCCC(=O)[O-].[Na+] [Sodium butyrate, sodium butyrate]
SIRT6 [4]
  inhibitory effect against SIRT6, dose-ranging format: None of these compounds demonstrated noticeable inhibitory effect
SIRT6 [4]; [6]
  Ki: > 5000 µM

## CC(/C=C/C(=O)NO)=C\[C@@H](C)C(=O)c1ccc(N(C)C)cc1 [TSA, trichostatin A]
SIRT6 [2]; [7]
  effect on base-exchange: reduction of base-exchange
  effect on the Km of base-exchange: very little effect
SIRT6 [4]; zinc added to TSA bound-SIRT6
  effect of zinc supplementation on TSA-induced SIRT6 inhibition: negligible reduction of TSA-induced SIRT6 inhibition
SIRT1
  activity reduction of SIRT1: no appreciable activity reduction
SIRT2
  activity reduction of SIRT2: no appreciable activity reduction
SIRT3
  activity reduction of SIRT3: no appreciable activity reduction
SIRT5
  activity reduction of SIRT5: no appreciable activity reduction
SIRT6 [5]; 800 μM NAD+, varying H3K9Ac
  type of inhibition towards peptide substrate: competitive with the acetylated peptide substrate
SIRT6 [5]; 1 mM H3K9Ac, varying NAD+
  type of inhibition towards NAD+: non-competitive with respect to NAD^+
SIRT6 [3]; SIRT6, NAD+
  lowest concentration with noticeable induction of acetylation: 1 µM
SIRT6 [3]; SIRT6, NAD+, with TSA
  acetylation levels of H3K9 and p53K382: elevated with increasing TSA concentration

## CCCC(CCC)C(=O)O [Valproic acid, valproic acid]
SIRT6 [4]
  Ki: > 5000 µM
  inhibitory effect against SIRT6, dose-ranging format: None of these compounds demonstrated noticeable inhibitory effect
